Where a SMILES comes first, the peptide text is derived from it.
Target: T1, Interleukin-23 receptor (Homo sapiens, UniProt Q5VWK5)
T1 sequence (Q5VWK5 whole entry): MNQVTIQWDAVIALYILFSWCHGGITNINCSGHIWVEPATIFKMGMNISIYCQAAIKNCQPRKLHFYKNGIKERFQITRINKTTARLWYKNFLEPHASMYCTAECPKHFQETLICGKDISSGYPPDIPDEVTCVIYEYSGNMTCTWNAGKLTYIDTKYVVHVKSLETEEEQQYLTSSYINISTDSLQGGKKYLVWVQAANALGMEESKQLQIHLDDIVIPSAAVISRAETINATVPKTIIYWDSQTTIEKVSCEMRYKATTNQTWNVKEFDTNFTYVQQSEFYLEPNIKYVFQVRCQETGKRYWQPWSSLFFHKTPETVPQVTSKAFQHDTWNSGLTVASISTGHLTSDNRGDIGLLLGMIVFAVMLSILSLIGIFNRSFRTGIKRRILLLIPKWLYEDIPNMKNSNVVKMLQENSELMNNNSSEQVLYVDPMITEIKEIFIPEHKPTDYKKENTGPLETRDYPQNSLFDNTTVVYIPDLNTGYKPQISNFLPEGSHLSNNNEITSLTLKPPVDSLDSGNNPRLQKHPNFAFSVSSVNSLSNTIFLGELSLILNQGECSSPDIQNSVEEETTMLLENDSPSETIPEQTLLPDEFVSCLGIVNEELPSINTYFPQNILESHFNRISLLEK
Test: Inhibition of interleukin-23 binding to human interleukin-23 receptor incubated for 2 hrs by competitive binding ELISA

| Compound | IC50 [nM] |
| --- | --- |
| C[C@H](NC(=O)[C@@H](N)CS)C(=O)N[C@@H](CC(=O)O)C(=O)N[C@@H](Cc1c[nH]c2ccccc12)C(=O)N(C)CC(=O)N[C@@H](CS)C(=O)N[C@@H](Cc1ccc(O)cc1)C(=O)N[C@@H](Cc1cccc2ccccc12)C(=O)N[C@@H](Cc1cnc[nH]1)C(=O)N[C@H](C(=O)N[C@@H](Cc1ccccc1)C(=O)O)[C@@H](C)O | > 1000 |
| CC(=O)N[C@@H](CS)C(=O)N[C@@H](C)C(=O)N[C@@H](CC(=O)O)C(=O)N[C@@H](Cc1c[nH]c2ccccc12)C(=O)N[C@H](C(=O)N[C@@H](CS)C(=O)N[C@@H](Cc1ccc(O)cc1)C(=O)N[C@@H](Cc1c[nH]c2ccccc12)C(=O)N[C@@H](Cc1cnc[nH]1)C(=O)N[C@@H](CCCNC(=N)N)C(=O)N[C@@H](CS)C(=O)NCC(=O)N[C@@H](Cc1c[nH]c2ccccc12)C(=O)N[C@@H](Cc1c[nH]c2ccccc12)C(=O)NCC(=O)N[C@@H](CS)C(N)=O)C(C)C (Ac-CADWVCYWHRCGWWGC-NH2) | > 1000 |
| CC(=O)N[C@@H](CS)C(=O)N[C@@H](C)C(=O)N[C@@H](CC(=O)O)C(=O)N[C@@H](Cc1c[nH]c2ccccc12)C(=O)N[C@@H](CCCCN)C(=O)N[C@@H](CS)C(=O)N[C@@H](Cc1ccc(O)cc1)C(=O)N[C@@H](Cc1c[nH]c2ccccc12)C(=O)N[C@@H](Cc1cnc[nH]1)C(=O)N[C@H](C(=O)N[C@@H](Cc1ccccc1)C(=O)NCC(=O)O)[C@@H](C)O | > 1000 |
| CC(=O)N[C@H]1CCSC[C@@H](C(=O)N[C@@H](Cc2ccc(OCCN)cc2)C(=O)N[C@@H](Cc2ccc3ccccc3c2)C(=O)N[C@@](C)(CCCCN)C(=O)N[C@@H](CCC(=O)O)C(=O)N[C@@H](CC(N)=O)C(=O)NCC(N)=O)NC(=O)[C@H](CCC(N)=O)NC(=O)[C@H](c2ccc(Cl)c(Cl)c2)NC(=O)[C@H]([C@@H](C)O)NC(=O)[C@H](CCC(N)=O)NC1=O | > 3000 |
| CC(=O)N[C@@H](CS)C(=O)N(C)[C@@H](CCCCN)C(=O)N[C@H](C(=O)N[C@@H](Cc1c[nH]c2ccccc12)C(=O)N[C@@H](CCC(N)=O)C(=O)N[C@@H](CS)C(=O)N[C@@H](Cc1ccc(O)cc1)C(=O)N[C@@H](Cc1c[nH]c2ccccc12)C(=O)N[C@@H](CCCNC(=N)N)C(=O)N[C@H](C(=O)N[C@@H](Cc1ccccc1)C(=O)NCC(=O)NCCOCC(=O)N[C@H](CCCCN)C(N)=O)C(C)C)[C@@H](C)O | 80 |
| CC(=O)N[C@@H](CS)C(=O)N[C@@H](C)C(=O)N[C@@H](CC(=O)O)C(=O)N[C@@H](Cc1c[nH]c2ccccc12)C(=O)N[C@H](C(=O)N[C@H](C(=O)N[C@@H](Cc1ccc(O)cc1)C(=O)N[C@@H](Cc1c[nH]c2ccccc12)C(=O)N[C@@H](Cc1cnc[nH]1)C(=O)N[C@H](C(=O)N[C@@H](Cc1ccccc1)C(=O)NCC(N)=O)[C@@H](C)O)C(C)(C)S)C(C)C | 1000 to 10000 |
| CC(=O)N[C@H](CCCCNC(=O)COCC(=O)NCCCC[C@@H](NC(C)=O)C(=O)N[C@@H](CS)C(=O)N[C@@H](C)C(=O)N[C@@H](CC(=O)O)C(=O)N[C@@H](Cc1c[nH]c2ccccc12)C(=O)N[C@H](C(=O)N[C@@H](CS)C(=O)N[C@@H](Cc1ccc(O)cc1)C(=O)N[C@@H](Cc1c[nH]c2ccccc12)C(=O)N[C@@H](Cc1cnc[nH]1)C(=O)N[C@H](C(=O)N[C@@H](Cc1ccccc1)C(=O)NCC(=O)O)[C@@H](C)O)C(C)C)C(=O)N[C@@H](CS)C(=O)N[C@@H](C)C(=O)N[C@@H](CC(=O)O)C(=O)N[C@@H](Cc1c[nH]c2ccccc12)C(=O)N[C@H](C(=O)N[C@@H](CS)C(=O)N[C@@H](Cc1ccc(O)cc1)C(=O)N[C@@H](Cc1c[nH]c2ccccc12)C(=O)N[C@@H](Cc1cnc[nH]1)C(=O)N[C@H](C(=O)N[C@@H](Cc1ccccc1)C(=O)NCC(=O)O)[C@@H](C)O)C(C)C | > 10000 |
| CC(=O)N[C@@H](CS)C(=O)N[C@@H](C)C(=O)N[C@@H](CC(=O)O)C(=O)N[C@@H](Cc1c[nH]c2ccccc12)C(=O)N[C@H](C(=O)N[C@@H](CS)C(N)=O)C(C)C (Ac-CADWVC-NH2) | > 1000 |
| CC1CSC[C@@H](C(=O)N[C@@H](Cc2ccc(O)cc2)C(=O)N[C@@H](Cc2c[nH]c3ccccc23)C(=O)N[C@@H](CCCNC(=N)N)C(=O)N[C@@H](CCC(=O)O)C(=O)N[C@@H](CC(N)=O)C(=O)NCC(=O)NCCOCC(=O)N[C@H](CCCCN)C(N)=O)NC(=O)[C@H](CCC(N)=O)NC(=O)[C@H](Cc2c[nH]c3ccccc23)NC(=O)[C@H](CC(=O)O)NC(=O)[C@H](CCC(N)=O)NC1=O (stereo partly specified) | 6000 |
| CC(C)[C@H](NC(=O)[C@H](Cc1c[nH]c2ccccc12)NC(=O)[C@H](CC(=O)O)NC(=O)[C@H](C)NC(=O)[C@@H](N)C(C)(C)S)C(=O)N[C@H](C(=O)N[C@@H](Cc1ccc(O)cc1)C(=O)N[C@@H](Cc1c[nH]c2ccccc12)C(=O)N[C@@H](Cc1cnc[nH]1)C(=O)N[C@H](C(=O)N[C@@H](Cc1ccccc1)C(=O)NCC(N)=O)[C@@H](C)O)C(C)(C)S | > 6000 |
| CC(=O)NC1CC/C=C\CCC(C(=O)N[C@@H](Cc2ccc(O)cc2)C(=O)N[C@@H](Cc2c[nH]c3ccccc23)C(=O)N[C@@H](CCCNC(=N)N)C(=O)N[C@@H](CCCCN)C(=O)N[C@@H](Cc2ccccc2)C(=O)NCC(=O)NCCOCC(=O)N[C@H](CCCCN)C(N)=O)NC(=O)[C@H](CCC(N)=O)NC(=O)[C@H](Cc2c[nH]c3ccccc23)NC(=O)[C@H]([C@@H](C)O)NC(=O)[C@H](CCCNC(=N)N)NC1=O (stereo partly specified) | 100 to 1000 |
| CC(=O)N[C@@H](CS)C(=O)N[C@@H](C)C(=O)N[C@@H](CC(=O)O)C(=O)N[C@@H](Cc1c[nH]c2ccccc12)C(=O)N[C@H](C(=O)N[C@@H](CS)C(=O)N[C@@H](Cc1ccc(O)cc1)C(=O)N[C@H](CC(=O)N[C@@H](CCCN)C(=O)N[C@@H](CN)C(=O)N[C@@H](Cc1ccccc1)C(=O)NCC(=O)NCCOCC(=O)N[C@H](CCCCN)C(N)=O)Cc1c[nH]c2ccccc12)C(C)C | 6000 |
| CC(=O)N[C@@H](CS)C(=O)N[C@@H](CCC(N)=O)C(=O)N[C@H](C(=O)N[C@@H](Cc1c[nH]c2ccccc12)C(=O)N[C@@H](CCC(N)=O)C(=O)N[C@@H](CS)C(=O)N[C@@H](Cc1ccc(O)cc1)C(=O)N[C@H](CC(=O)N[C@@H](CCCNC(=N)N)C(=O)N[C@H](C(=O)N[C@@H](CC(N)=O)C(=O)NCC(=O)NCCOCC(=O)N[C@H](CCCCN)C(N)=O)C(C)C)Cc1ccc(F)cc1)[C@@H](C)O | > 30000 |
| CC(C)[C@H](NC(=O)[C@H](Cc1c[nH]c2ccccc12)NC(=O)[C@H](CC(=O)O)NC(=O)[C@@H](NC(=O)[C@@H](N)CS)[C@@H](C)O)C(=O)N[C@@H](CS)C(=O)N[C@@H](Cc1ccc(O)cc1)C(=O)N[C@@H](Cc1c[nH]c2ccccc12)C(=O)N[C@@H](Cc1cnc[nH]1)C(=O)N[C@@H](CCC(=O)O)C(=O)N[C@@H](Cc1ccc(O)cc1)C(=O)N[C@@H](CO)C(N)=O (H-CTDWVCYWHEYS-NH2) | > 1000 |
| CC(C)[C@H](NC(=O)[C@H](Cc1c[nH]c2ccccc12)NC(=O)[C@H](CC(=O)O)NC(=O)[C@H](C)NC(=O)[C@@H](N)CS)C(=O)N[C@@H](CS)C(=O)N[C@@H](Cc1ccc(O)cc1)C(=O)N[C@@H](Cc1ccc2ccccc2c1)C(=O)N[C@@H](Cc1cnc[nH]1)C(=O)N[C@H](C(=O)N[C@@H](Cc1ccccc1)C(=O)NCC(N)=O)[C@@H](C)O | 500 to 1000 |
| C[C@@H](O)[C@H](NC(=O)[C@H](CCC(N)=O)NC(=O)[C@@H](N)CS)C(=O)N[C@@H](Cc1c[nH]c2ccccc12)C(=O)N[C@@H](CCC(N)=O)C(=O)N[C@@H](CS)C(=O)N[C@@H](Cc1ccc(O)cc1)C(=O)N1Cc2ccccc2C[C@H]1C(=O)N[C@@H](CCCN)C(=O)N[C@@H](CCCCN)C(=O)N[C@@H](Cc1ccccc1)C(=O)NCC(=O)NCCOCC(=O)N[C@H](CCCCN)C(N)=O | > 30000 |
| N=C(N)NCCC[C@H](NC(=O)[C@H](Cc1cnc[nH]1)NC(=O)[C@H](Cc1c[nH]c2ccccc12)NC(=O)[C@H](Cc1ccc(O)cc1)NC(=O)[C@H](CS)NC(=O)[C@H](CCC(=O)O)NC(=O)[C@H](Cc1c[nH]c2ccccc12)NC(=O)[C@H](CC(N)=O)NC(=O)[C@@H]1CCCN1C(=O)[C@@H](N)CS)C(=O)N[C@@H](Cc1ccccc1)C(=O)NCC(N)=O (H-CPNWECYWHRFG-NH2) | 500 to 1000 |
| COc1ccc(C[C@H](NC(=O)[C@@H](NC(=O)[C@H](CCC(N)=O)NC(=O)[C@H](Cc2c[nH]c3ccccc23)NC(=O)[C@@H](NC(=O)[C@H](CCC(N)=O)NC(=O)[C@@H](NC(=O)c2cc(O)c(O)c(O)c2)C(C)(C)S)[C@@H](C)O)C(C)(C)S)C(=O)N[C@@H](Cc2ccc3ccccc3c2)C(=O)N[C@@](C)(CCCCN)C(=O)N[C@@H](CCCCNC(C)=O)C(=O)N[C@@H](CC(N)=O)C(=O)NCC(N)=O)cc1 | 1000 to 10000 |
| CC(=O)N[C@@H](CS)C(=O)N[C@@H](C)C(=O)N[C@@H](CC(=O)O)C(=O)N[C@@H](Cc1c[nH]c2ccccc12)C(=O)N[C@H](C(=O)N[C@@H](CS)C(=O)N[C@@H](Cc1ccc(O)cc1)C(=O)N[C@@H](Cc1cccc2ccccc12)C(=O)N[C@@H](Cc1cnc[nH]1)C(=O)N[C@H](C(=O)N[C@@H](Cc1ccccc1)C(=O)NC(C)(C)C(N)=O)[C@@H](C)O)C(C)C | > 1000 |
| Ac-QTWQCYWRK(Ac)NG-NH2 | < 500 |
| CC(C)[C@H](NC(=O)[C@H](Cc1ccc2ccccc2c1)NC(=O)[C@H](CC(=O)O)NC(=O)[C@H](C)NC(=O)[C@@H](N)CS)C(=O)N[C@@H](CS)C(=O)N[C@@H](Cc1ccc(O)cc1)C(=O)N[C@@H](Cc1c[nH]c2ccccc12)C(=O)N[C@@H](Cc1cnc[nH]1)C(=O)N[C@H](C(=O)N[C@@H](Cc1ccccc1)C(=O)NCC(N)=O)[C@@H](C)O | > 1000 |

Reference: ChEMBL document CHEMBL4417631, “Oral peptide inhibitors of interleukin-23 receptor and their use to treat inflammatory bowel diseases” (2017)
